# Measured values taken from PMC5218480 (PLoS ONE, 2017).
# Test system: MV-4-11 cells
# Assay: Gene expression microarray analysis (Affymetrix PrimeView) and GSEA
# Format: cell-based, human
# Set-up: RFU PODN (11730768_x_at) / Fold change /veh PODN (11730768_x_at) / RFU LINC00158 (11744669_a_at) / Fold change /veh LINC00158 (11744669_a_at) / RFU DUSP10 (11751237_a_at) / Fold change /veh DUSP10 (11751237_a_at) / RFU ID3 (11757404_x_at) / Fold change /veh ID3 (11757404_x_at) / RFU PLEKHG5 (11737974_s_at) / Fold change /veh PLEKHG5 (11737974_s_at) / RFU LRRC4B (11730491_at) / Fold change /veh LRRC4B (11730491_at) / RFU GIMAP4 (11747438_a_at) / Fold change /veh GIMAP4 (11747438_a_at) / RFU KRT8 (11758183_x_at) / Fold change /veh KRT8 (11758183_x_at) / RFU CNN1 (11734310_a_at) / Fold change /veh CNN1 (11734310_a_at) / RFU VPS37D (11726825_at) / Fold change /veh VPS37D (11726825_at) / RFU C10orf10 (11716522_x_at) / Fold change /veh C10orf10 (11716522_x_at) / RFU KIR2DL2 /// KIR2DL4 /// KIR2DL5A /// KIR2DL5B /// KIR2DS1 /// KIR2DS2 /// KIR2DS3 /// KIR2DS4 /// KIR3DL3 /// KIR3DL3 /// KIR3DS1 (11738374_at) / Fold change /veh KIR2DL2 /// KIR2DL4 /// KIR2DL5A /// KIR2DL5B /// KIR2DS1 /// KIR2DS2 /// KIR2DS3 /// KIR2DS4 /// KIR3DL3 /// KIR3DL3 /// KIR3DS1 (11738374_at) / RFU C1QL1 (11718748_at) / Fold change /veh C1QL1 (11718748_at) / RFU TMPRSS4 (11747572_a_at) / Fold change /veh TMPRSS4 (11747572_a_at) / RFU HAMP (11756126_x_at) / Fold change /veh HAMP (11756126_x_at) / RFU RNFT2 (11725882_a_at) / Fold change /veh RNFT2 (11725882_a_at) / RFU NR4A2 (11747474_a_at) / Fold change /veh NR4A2 (11747474_a_at) / RFU ABCC12 (11746883_a_at) / Fold change /veh ABCC12 (11746883_a_at) / RFU TMEM136 (11760407_x_at) / Fold change /veh TMEM136 (11760407_x_at) / RFU CLDN22 /// WWC2 (11732394_at) / Fold change /veh CLDN22 /// WWC2 (11732394_at) / RFU HLA-DPB1 (11760878_x_at) / Fold change /veh HLA-DPB1 (11760878_x_at) / RFU SPINT1 (11716480_a_at) / Fold change /veh SPINT1 (11716480_a_at) / RFU GAP43 (11754022_s_at) / Fold change /veh GAP43 (11754022_s_at) / RFU A4GNT (11735810_at) / Fold change /veh A4GNT (11735810_at) / RFU PRB3 (11715151_x_at) / Fold change /veh PRB3 (11715151_x_at) / RFU TUBB4B (11761932_at) / Fold change /veh TUBB4B (11761932_at) / RFU CAPN14 (11732068_a_at) / Fold change /veh CAPN14 (11732068_a_at) / RFU TMCC2 (11721928_a_at) / Fold change /veh TMCC2 (11721928_a_at) / RFU IRGQ (11745062_a_at) / Fold change /veh IRGQ (11745062_a_at) / RFU FAM174B (11720279_a_at) / Fold change /veh FAM174B (11720279_a_at) / RFU TMPRSS4 (11748680_a_at) / Fold change /veh TMPRSS4 (11748680_a_at) / RFU FAM212B (11763350_a_at) / Fold change /veh FAM212B (11763350_a_at) / RFU PLEKHG5 (11743358_a_at) / Fold change /veh PLEKHG5 (11743358_a_at) / RFU ZSCAN30 (11745921_a_at) / Fold change /veh ZSCAN30 (11745921_a_at) / RFU CMKLR1 (11741424_a_at) / Fold change /veh CMKLR1 (11741424_a_at) / RFU LOC101060620 /// MAPK8IP1 (11723275_at) / Fold change /veh LOC101060620 /// MAPK8IP1 (11723275_at) / RFU SPTSSB (11747773_x_at) / Fold change /veh SPTSSB (11747773_x_at) / RFU PRSS12 (11739890_at) / Fold change /veh PRSS12 (11739890_at) / RFU BIN1 (11741810_x_at) / Fold change /veh BIN1 (11741810_x_at) / RFU WNT11 (11732464_a_at) / Fold change /veh WNT11 (11732464_a_at) / RFU C10orf10 (11716521_a_at) / Fold change /veh C10orf10 (11716521_a_at) / RFU C5orf56 (11738089_at) / Fold change /veh C5orf56 (11738089_at) / RFU CYB561 (11721691_x_at) / Fold change /veh CYB561 (11721691_x_at) / RFU ANKRD19P (11752326_a_at) / Fold change /veh ANKRD19P (11752326_a_at) / RFU OR2T12 /// OR2T33 /// OR2T8 (11738714_s_at) / Fold change /veh OR2T12 /// OR2T33 /// OR2T8 (11738714_s_at) / RFU VCAN (11748164_a_at) / Fold change /veh VCAN (11748164_a_at) / RFU JSRP1 (11732532_at) / Fold change /veh JSRP1 (11732532_at) / RFU KRTAP10-11 (11738290_x_at) / Fold change /veh KRTAP10-11 (11738290_x_at) / RFU MYO3A (11730013_a_at) / Fold change /veh MYO3A (11730013_a_at) / RFU EBF3 (11725865_a_at) / Fold change /veh EBF3 (11725865_a_at) / RFU CAMK2N1 (11719241_x_at) / Fold change /veh CAMK2N1 (11719241_x_at) / RFU C5orf56 (11738088_a_at) / Fold change /veh C5orf56 (11738088_a_at) / RFU OLFML3 (11715873_a_at) / Fold change /veh OLFML3 (11715873_a_at) / RFU LOC100653217 /// NTM (11731650_a_at) / Fold change /veh LOC100653217 /// NTM (11731650_a_at) / RFU MAPK11 (11762145_a_at) / Fold change /veh MAPK11 (11762145_a_at) / RFU FIZ1 (11724087_x_at) / Fold change /veh FIZ1 (11724087_x_at) / RFU OASL (11726364_x_at) / Fold change /veh OASL (11726364_x_at) / RFU SOX15 (11748057_x_at) / Fold change /veh SOX15 (11748057_x_at) / RFU CD79A (11719716_a_at) / Fold change /veh CD79A (11719716_a_at) / RFU HIST1H1D (11736915_at) / Fold change /veh HIST1H1D (11736915_at) / RFU CASKIN2 (11723855_a_at) / Fold change /veh CASKIN2 (11723855_a_at) / RFU LOC730098 (11760151_x_at) / Fold change /veh LOC730098 (11760151_x_at) / RFU OR4N2 (11742367_at) / Fold change /veh OR4N2 (11742367_at) / RFU PRRT2 (11749266_a_at) / Fold change /veh PRRT2 (11749266_a_at) / RFU SNX32 (11753110_a_at) / Fold change /veh SNX32 (11753110_a_at) / RFU CDHR5 (11726645_a_at) / Fold change /veh CDHR5 (11726645_a_at) / RFU RCAN1 (11760418_a_at) / Fold change /veh RCAN1 (11760418_a_at) / RFU FAM167A (11723789_a_at) / Fold change /veh FAM167A (11723789_a_at) / RFU FAM26E (11764081_at) / Fold change /veh FAM26E (11764081_at) / RFU ISYNA1 (11749810_s_at) / Fold change /veh ISYNA1 (11749810_s_at) / RFU ACY1 (11761880_at) / Fold change /veh ACY1 (11761880_at) / RFU 11764098_at / Fold change /veh 11764098_at / RFU SAMD14 (11745864_x_at) / Fold change /veh SAMD14 (11745864_x_at) / RFU NPB (11741838_a_at) / Fold change /veh NPB (11741838_a_at) / RFU TMPRSS6 (11731388_a_at) / Fold change /veh TMPRSS6 (11731388_a_at) / RFU KRTAP10-2 (11738614_at) / Fold change /veh KRTAP10-2 (11738614_at) / RFU ARHGAP8 /// PRR5-ARHGAP8 (11727945_x_at) / Fold change /veh ARHGAP8 /// PRR5-ARHGAP8 (11727945_x_at) / RFU KRTAP5-7 /// NADSYN1 (11734609_at) / Fold change /veh KRTAP5-7 /// NADSYN1 (11734609_at) / RFU RASL12 (11751679_a_at) / Fold change /veh RASL12 (11751679_a_at) / RFU CDKN2B (11736163_a_at) / Fold change /veh CDKN2B (11736163_a_at) / RFU PRF1 (11729649_at) / Fold change /veh PRF1 (11729649_at) / RFU, ZNF638 /// ZNF638-IT1 / Fold change vs veh, ZNF638 /// ZNF638-IT1 / RFU, PANK3 / Fold change vs veh, PANK3 / RFU, SH3YL1 / Fold change vs veh, SH3YL1 / RFU, ZEB2 / Fold change vs veh, ZEB2 / RFU, NRIP1 / Fold change vs veh, NRIP1 / RFU, PTTG1IP / Fold change vs veh, PTTG1IP / RFU, CAPN2 / Fold change vs veh, CAPN2 / RFU, MED14 / Fold change vs veh, MED14 / RFU, SNORA58 / Fold change vs veh, SNORA58 / RFU, C1orf63 / Fold change vs veh, C1orf63 / RFU, LRRFIP1 / Fold change vs veh, LRRFIP1 / RFU, NDUFAF7 / Fold change vs veh, NDUFAF7 / RFU, SLC12A2 / Fold change vs veh, SLC12A2 / RFU, IBTK / Fold change vs veh, IBTK / RFU, ESF1 / Fold change vs veh, ESF1 / Fold change vs veh, TMEM50B / RFU, TAOK1 / Fold change vs veh, TAOK1 / RFU, ACBD3 / Fold change vs veh, ACBD3 / RFU, TMA16 / Fold change vs veh, TMA16 / RFU, RWDD3 / Fold change vs veh, RWDD3 / RFU, BCAT1 / Fold change vs veh, BCAT1 / RFU, EDEM3 / Fold change vs veh, EDEM3 / RFU, TMEM33 / Fold change vs veh, TMEM33 / RFU, WDR75 / Fold change vs veh, WDR75 / RFU, AHCTF1 / Fold change vs veh, AHCTF1 / RFU, TFRC / Fold change vs veh, TFRC / RFU, ZDHHC17 / Fold change vs veh, ZDHHC17 / RFU, NOM1 / Fold change vs veh, NOM1 / RFU, ARL8B / Fold change vs veh, ARL8B / RFU, ZBTB11 / Fold change vs veh, ZBTB11 / RFU, TAMM41 / Fold change vs veh, TAMM41 / RFU, KIAA1704 /// LOC100996395 / Fold change vs veh, KIAA1704 /// LOC100996395 / RFU, ING1 / Fold change vs veh, ING1 / RFU, TRMT61B / Fold change vs veh, TRMT61B / RFU, FUBP3 / Fold change vs veh, FUBP3 / RFU, TP53 / Fold change vs veh, TP53 / RFU, TNKS2 / Fold change vs veh, TNKS2 / RFU, ZFP14 / Fold change vs veh, ZFP14 / RFU, ACTR2 / Fold change vs veh, ACTR2 / RFU, PPP3R1 / Fold change vs veh, PPP3R1 / RFU, PIK3R1 / Fold change vs veh, PIK3R1 / RFU, HNRNPA1 / Fold change vs veh, HNRNPA1 / RFU, RNF170 / Fold change vs veh, RNF170 / RFU, ZNF28 / Fold change vs veh, ZNF28 / RFU, RNGTT / Fold change vs veh, RNGTT / RFU, OGT / Fold change vs veh, OGT / RFU, BRD1 / Fold change vs veh, BRD1 / RFU, MARS / Fold change vs veh, MARS / RFU, ZNF655 / Fold change vs veh, ZNF655 / RFU, FAHD1 / Fold change vs veh, FAHD1 / RFU, BDP1 / Fold change vs veh, BDP1 / RFU, LRRCC1 / Fold change vs veh, LRRCC1 / RFU, ARID1A / Fold change vs veh, ARID1A / RFU, ZNF146 / Fold change vs veh, ZNF146 / RFU, ZNF330 / Fold change vs veh, ZNF330 / RFU, GPN3 / Fold change vs veh, GPN3 / RFU, C9orf123 / Fold change vs veh, C9orf123 / RFU, N4BP2L2 / Fold change vs veh, N4BP2L2 / RFU, ARFIP1 / Fold change vs veh, ARFIP1 / RFU, FAM179B / Fold change vs veh, FAM179B / RFU, BCL10 / Fold change vs veh, BCL10 / RFU, UHRF1BP1L / Fold change vs veh, UHRF1BP1L / RFU, BET1 / Fold change vs veh, BET1 / RFU, CNOT2 / Fold change vs veh, CNOT2 / RFU, ZNF268 / Fold change vs veh, ZNF268 / Fold change vs veh, ZNF507 / RFU, DGCR2 / Fold change vs veh, DGCR2 / RFU, WDSUB1 / Fold change vs veh, WDSUB1 / Fold change vs veh, HSP90B1 /// MIR3652 / RFU, ADSS / Fold change vs veh, ADSS / RFU, GK / Fold change vs veh, GK / RFU, ZNF148 / Fold change vs veh, ZNF148 / RFU, TAF9 / Fold change vs veh, TAF9 / RFU, SLC1A5 / Fold change vs veh, SLC1A5 / RFU, SLMO2 / Fold change vs veh, SLMO2 / RFU, ABCC4 / Fold change vs veh, ABCC4 / RFU, LOC101060439 /// RAP1B / Fold change vs veh, LOC101060439 /// RAP1B / RFU, RFX7 / Fold change vs veh, RFX7 / RFU, GTPBP10 / Fold change vs veh, GTPBP10 / RFU, CNEP1R1 / Fold change vs veh, CNEP1R1 / RFU, BIVM-ERCC5 /// ERCC5 / Fold change vs veh, BIVM-ERCC5 /// ERCC5 / RFU, ILF3 / Fold change vs veh, ILF3 / RFU 11762660_at / Fold change /veh 11762660_at / RFU VCAN (11757783_s_at) / Fold change /veh VCAN (11757783_s_at) / RFU DDX43 (11728927_at) / Fold change /veh DDX43 (11728927_at) / RFU KRT8 (11758188_x_at) / Fold change /veh KRT8 (11758188_x_at) / RFU NKD1 (11759106_at) / Fold change /veh NKD1 (11759106_at) / RFU SRD5A1 (11742802_a_at) / Fold change /veh SRD5A1 (11742802_a_at) / RFU TPSAB1 /// TPSB2 (11721975_s_at) / Fold change /veh TPSAB1 /// TPSB2 (11721975_s_at) / RFU GSTM3 (11746129_a_at) / Fold change /veh GSTM3 (11746129_a_at) / RFU IL23R (11737362_x_at) / Fold change /veh IL23R (11737362_x_at) / RFU TMEM51 (11727254_a_at) / Fold change /veh TMEM51 (11727254_a_at) / RFU PIWIL2 (11732686_x_at) / Fold change /veh PIWIL2 (11732686_x_at) / RFU ORM1 (11744905_x_at) / Fold change /veh ORM1 (11744905_x_at) / RFU CCDC152 (11743942_at) / Fold change /veh CCDC152 (11743942_at) / RFU ECM1 (11717891_a_at) / Fold change /veh ECM1 (11717891_a_at) / RFU IL23R (11748794_a_at) / Fold change /veh IL23R (11748794_a_at) / RFU TNFAIP8L3 (11732012_x_at) / Fold change /veh TNFAIP8L3 (11732012_x_at) / RFU MBOAT4 (11741988_at) / Fold change /veh MBOAT4 (11741988_at) / RFU 11764193_at / Fold change /veh 11764193_at / RFU TMEM53 (11763286_at) / Fold change /veh TMEM53 (11763286_at) / RFU MAGEB2 (11727129_at) / Fold change /veh MAGEB2 (11727129_at) / RFU TMEM200A (11744735_a_at) / Fold change /veh TMEM200A (11744735_a_at) / RFU CCDC152 (11751479_a_at) / Fold change /veh CCDC152 (11751479_a_at) / RFU FAM211A (11726209_a_at) / Fold change /veh FAM211A (11726209_a_at) / RFU RGS16 (11746705_a_at) / Fold change /veh RGS16 (11746705_a_at) / RFU VCAN (11755009_s_at) / Fold change /veh VCAN (11755009_s_at) / RFU RHOB (11743442_s_at) / Fold change /veh RHOB (11743442_s_at) / RFU RGS16 (11720943_a_at) / Fold change /veh RGS16 (11720943_a_at) / RFU RGS16 (11720944_at) / Fold change /veh RGS16 (11720944_at) / RFU, VPS4B / Fold change vs veh, VPS4B / RFU, CREB1 / Fold change vs veh, CREB1 / RFU, DNAJC13 / Fold change vs veh, DNAJC13 / RFU, GNAQ / Fold change vs veh, GNAQ / RFU, CDK5R1 / Fold change vs veh, CDK5R1 / RFU, ZRANB3 / Fold change vs veh, ZRANB3 / RFU, CUL4A / Fold change vs veh, CUL4A / RFU, CCNY / Fold change vs veh, CCNY / RFU, UFL1 / Fold change vs veh, UFL1 / RFU, COG3 / Fold change vs veh, COG3 / RFU, DIAPH2 / Fold change vs veh, DIAPH2 / RFU, SKA2 / Fold change vs veh, SKA2 / RFU, AFF3 / Fold change vs veh, AFF3 / RFU, LMF1 / Fold change vs veh, LMF1 / RFU, IPO11 / Fold change vs veh, IPO11 / RFU, DFFB / Fold change vs veh, DFFB / RFU, FOXP1 / Fold change vs veh, FOXP1 / RFU, CARD8 / Fold change vs veh, CARD8 / RFU, STRN3 / Fold change vs veh, STRN3 / RFU, ADK / Fold change vs veh, ADK / RFU, RASSF2 / Fold change vs veh, RASSF2 / RFU, WIPF1 / Fold change vs veh, WIPF1 / RFU, LARP1B / Fold change vs veh, LARP1B / RFU, RASA1 / Fold change vs veh, RASA1 / RFU, RB1 / Fold change vs veh, RB1 / RFU, PPFIA1 / Fold change vs veh, PPFIA1 / RFU, MAT2A / Fold change vs veh, MAT2A / RFU, CCT5 / Fold change vs veh, CCT5 / RFU, WDR92 / Fold change vs veh, WDR92 / RFU, CUX1 / Fold change vs veh, CUX1 / RFU, TTC7A / Fold change vs veh, TTC7A / RFU, TMEM135 / Fold change vs veh, TMEM135 / RFU, DEPTOR / Fold change vs veh, DEPTOR / RFU, CPM / Fold change vs veh, CPM / RFU, DNAJB6 / Fold change vs veh, DNAJB6 / RFU, CACNA2D3 / Fold change vs veh, CACNA2D3 / RFU, DTX4 / Fold change vs veh, DTX4 / RFU, TFCP2 / Fold change vs veh, TFCP2 / RFU, GMCL1 /// GMCL1P1 / Fold change vs veh, GMCL1 /// GMCL1P1 / RFU, AEBP2 / Fold change vs veh, AEBP2 / RFU, SNHG1 /// SNORD22 /// SNORD25 /// SNORD26 /// SNORD27 /// SNORD28 /// SNORD29 /// SNORD31 / Fold change vs veh, SNHG1 /// SNORD22 /// SNORD25 /// SNORD26 /// SNORD27 /// SNORD28 /// SNORD29 /// SNORD31 / Fold change (Aza/veh), C12orf56 (ProbeSet 11735607_a_at) / Fold change (ACY-1035/veh), C12orf56 (ProbeSet 11735607_a_at) / Fold change (Aza/veh), FGFR1OP (ProbeSet 11751329_s_at) / Fold change (ACY-1035/veh), FGFR1OP (ProbeSet 11751329_s_at) / Fold change (Aza/veh), VPS36 (ProbeSet 11739960_a_at) / Fold change (ACY-1035/veh), VPS36 (ProbeSet 11739960_a_at) / RFU SYPL1 (11715823_x_at) / Fold change /veh SYPL1 (11715823_x_at) / RFU IGFBP7 (11715501_s_at) / Fold change /veh IGFBP7 (11715501_s_at) / RFU REEP3 (11722064_at) / Fold change /veh REEP3 (11722064_at) / RFU IGLL1 (11728026_x_at) / Fold change /veh IGLL1 (11728026_x_at): dose or concentration left out as unconfirmed
# Settings: ProbeSet 11748670_a_at; LIST B
smiles,measurement,value
Nc1ncn([C@@H]2O[C@H](CO)[C@@H](O)[C@H]2O)c(=O)n1 [azacitidine],"RFU, PIK3R1",80.66 RFU
